From patent publication US20150368248A1, “2-SUBSTITUTED-6-BIARYLMETHYLAMINO-9-CYCLOPENTYL-9H-PURINE DERIVATIVES, USE THEREOF AS MEDICAMENTS, AND PHARMACEUTICAL COMPOSITIONS” (UNIVERZITA PALACKEHO V OLOMOUCI, priority 2013, published 2015) come the findings set out here.

Assay [1] concerns RNA polymerase II phosphorylation at serines 2 and 5. As to the kind of experiment: Immunoblot of RNA polymerase II phosphorylation (CDK7/CDK9 substrate). The class given is cell-based, human. How it is done: We monitored levels of phosphorylation of RNA polymerase II, which is a substrate of CDK7 and CDK9, in cells treated with compound BP14 (FIG. 3). Immunoblotting analysis was performed as described in Example 33 with using appropriate antibodies for anti-phospho RNA polymerase II (S5) (Bethyl Laboratories, USA), anti-phospho RNA polymerase II (S2) (Bethyl Laboratories, USA), anti-RNA polymerase II (clone ARNA-3, Millipore) and β-actin (clone C4, Santa Cruz Biotechnology, USA).
Immunoblotting was performed as described previously (36). The primary antibodies were used at the dilutions: anti-phospho-Ser5 RNA Pol II (CDK7; Bethyl Laboratories, Montgomery, USA), 1:1,000; anti-phospho-Ser2 RNA Pol II (CDK9; Bethyl Laboratories, Montgomery, USA), 1:1,000; anti-RNA Pol II (Santa Cruz Biotechnology, Santa Cruz, USA), 1:1,000; anti-PARP (Cell Signaling Technology, Beverly, USA), 1:1,000; anti-β-actin (Sigma, St. Louis, USA), 1:2.500. Horseradish peroxidase-conjugated secondary antibodies (Calbiochem, LaJolla, USA) were used at dilutions of 1:10,000.
A general note: Immunoblotting shows a protein as a band on a membrane.

In assay [2] the test system is 3sp (formerly described as HCC-1.1). Nature of the assay: MTT cell viability assay (Example 40). The class given is cell-based. The conditions noted are these: Homo sapiens, 72 hours. How it is done:
(§1) The human hepatoma cell lines and HepG2, PLC/PRF/5 (PLC), Hep3B and 3sp (formerly described as HCC-1.1) were cultivated in RPMI 1640 and 10% fetal calf serum (FCS) as described (31, 32). All cells were kept at 37° C. and 5% CO2 and were routinely screened for the absence of mycoplasma.
(§2) Cell viability was determined using the 3-(4,5 dimethylthiazol-2-yl)-2,5-diphenyltetrazolium bromide (MTT) assay. Briefly, cells were seeded in triplicates at a density of 6×10^3 cells per well. After 24 hours, cells were incubated with drug-containing medium for 72 hours. Cells were incubated with MTT solution (5 mg/ml; Sigma, St. Louis, USA) and medium was replaced with DMSO after five hours. The absorbance was measured at 620 nm by employing a microplate reader (Asys HiTech, Salzburg, Austria). MTT assays were repeated 3 times for each drug application and untreated cells were used as reference. IC50 values were obtained by log-linear interpolation of data points and are depicted by dose-response curves using the software GraphPad Prism® 5.01.
In general terms: Formazan colour is commonly taken as a measure of viable cells.

In assay [3] the test system is Hep3B. As to the kind of experiment: MTT cell viability assay (Example 40). Type of assay: cell-based. Particulars: Homo sapiens, 72 hours. The protocol: as §1, §2
The subject of assay [4] is HepG2. As to the kind of experiment: MTT cell viability assay (Example 40). The class given is cell-based. Particulars: Homo sapiens, 72 hours. How it is done: as §1, §2
For another assay, the system named is PLC/PRF/5 (PLC). As to the kind of experiment: MTT cell viability assay (Example 40). Particulars: Homo sapiens, 72 hours. The class given is cell-based. The protocol: as §1, §2
For the next assay, the system named is CDK1/CDK2. Nature of the assay: Kinase inhibition assays using cell-free extracts. The class given is biochemical, human. Particulars: 0.03 μM. How it is done: Whole cell extracts were prepared by lysing Hep3B cells with a buffer containing 20 mM Tris pH 8.0, 100 mM NaCl, 1 mM EDTA and 0.5% NP-40. 100 μg of extract was used for immunoprecipitation at 4° C. for 4 hours either with 1 μg of the anti-CDK2 antibody M2 (Santa Cruz Biotechnology, Santa Cruz, USA) or with 1 μg of the anti-cyclin B1 antibody GNS1 (Santa Cruz Biotechnology, Santa Cruz, USA). The precipitated proteins were washed three times with lysis buffer followed by one wash with the kinase buffer (50 mM HEPES pH 7.5, 10 mM MgCl2 and 1 mM DTT) and subsequently resuspended in 20 μl kinase buffer containing 5 μCi [γ-^32P]ATP
(PerkinElmer, Santa Clara, USA), 1 μg histone H1 (New England Biolabs, Ipswich, USA) and the respective concentration of inhibitor. After incubation for 60 minutes at 30° C., the supernatant was boiled in sample buffer containing 60 mM Tris/HCl pH6.8, 10% Glycerol, 2% SDS, 5% β-mercaptoethanol, 0.02% Bromophenol Blue. The proteins were separated by SDS-PAGE and blotted onto nitrocellulose membrane. Thereafter, the membrane was stained with Ponceau S to check equal loading and analyzed by autoradiography.

The test system of assay [5] is Hep3B. Nature of the assay: Determination of long-term chemosensitivity (MTT). Type of assay: cell-based. Particulars: Homo sapiens. How it is done: as §2
(§3) The selection of chemoresistant cells was monitored every 6 weeks by the determination of IC50 values using the MTT assay. HCC cells showing higher IC50 values after treatment with inhibitors as compared to untreated cells are considered as chemoresistant.

In assay [6] the test system is HepG2. As to the kind of experiment: Determination of long-term chemosensitivity (MTT). Type of assay: cell-based. The conditions noted are these: Homo sapiens, read-out: IC50 for BP14, HepG2. The protocol: as §2, §3

`NC1CCC(Nc2nc(NCc3ccc(-c4ccco4)nc3)c3ncn(C4CCCC4)c3n2)CC1` (centres unmarked) [BP14, N^2-(4-amino-cyclohexyl)-9-cyclopentyl-N^6-(6-furan-2-yl-pyridin-3-ylmethyl)-9H-purine-2,6-diamine]: the “RNA polymerase II phosphorylation on serine 5 (CDK7) and serine 2 (CDK9)” value in assay [1] (HepG2 and PLC cells, below 1 μM, 24 hours) is given as “strong reduction of RNA polymerase II phosphorylation”. For the same compound, the “phosphorylation at serines 2 and 5 of RNA polymerase II” value in assay [1] (mainly AKH3sp and Hep3B cell lines, 24 h) is “rapid decrease in phosphorylation at serines 2 and 5 of RNA polymerase II”. The IC50 in assay [2] was found to be 480 nM; with Hep3B [3], 80 nM; in the assay with HepG2 [4], 120 nM; in the assay with PLC/PRF/5 (PLC) it was 20 nM; with Hep3B [5] (control, read-out: IC50 for BP14, Hep3B), 530 nM; in the assay on Hep3B [5] (long-term exposure at 1/16 IC50, read-out: IC50 for BP14, Hep3B), 420 nM. Further, the IC50 in the assay with Hep3B [5] (long-term exposure at ¼ IC50, read-out: IC50 for BP14, Hep3B) came to 450 nM; in the assay with Hep3B [5] (long-term exposure at ½ IC50, read-out: IC50 for BP14, Hep3B), 800 nM; in the assay with Hep3B [5] (long-term exposure at ⅛ IC50, read-out: IC50 for BP14, Hep3B) it was 380 nM; with HepG2 [6] (HepG2, control) it was 320 nM; in the assay with HepG2 [6] (HepG2, long-term exposure at 1/16 IC50) it was 270 nM; in the assay on HepG2 [6] (HepG2, long-term exposure at ¼ IC50), 450 nM. The IC50 in the assay on HepG2 [6] (HepG2, long-term exposure at ½ IC50) is 590 nM; in the assay with HepG2 [6] (HepG2, long-term exposure at ⅛ IC50) it was 390 nM. For the same compound, the “CDK1/CDK2 activity in cell-free extracts” value with CDK1/CDK2 is listed as “significantly reduced CDK1/CDK2 activity”.

As usually defined, the IC50 is the midpoint of a concentration-inhibition curve.
